Experimental data published in ChEMBL document CHEMBL1201862, “PubChem BioAssay data set” (2004).
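Interpolation was linear, between the two tested concentrations surrounding the appropriate level; five concentrations were tested over 48 hours in 96-well plates. GI50 is the concentration that inhibits growth by half.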 Calls of active or inactive are those of the source. No stated cut-off is given here; in the data, active = GI50 up to about 1.1 µM and inactive = higher.

Legend:
Experiment in all cases: growth of human tumour cells (NCI), 48 h
NCI-H226 = system: NCI-H226
SF-295 = system: SF-295
OVCAR-5 = system: OVCAR-5
OVCAR-3 = system: OVCAR-3
HOP-62 = system: HOP-62
MDA-MB-435 = system: MDA-MB-435
SK-MEL-28 = system: SK-MEL-28
Hs-578T = system: Hs-578T
SN12C = system: SN12C
OVCAR-8 = system: OVCAR-8
MDA-N = system: MDA-N
PC-3 = system: PC-3
HCT-116 = system: HCT-116
HCC 2998 = system: HCC 2998
T47D = system: T47D
OVCAR-4 = system: OVCAR-4
RPMI-8226 = system: RPMI-8226
COLO 205 = system: COLO 205
A498 = system: A498
IGROV-1 = system: IGROV-1

Measured: GI50

C[N+](C)(C)c1ncnc2c1ncn2C1CCCO1 (stereo not given)
inactive: NCI-H226 > 100 µM | SF-295 > 100 µM | OVCAR-5 > 100 µM | OVCAR-3 > 100 µM | HOP-62 > 100 µM | MDA-MB-435 > 100 µM | SK-MEL-28 > 100 µM | Hs-578T > 100 µM | SN12C > 100 µM | OVCAR-8 > 100 µM | MDA-N > 100 µM | PC-3 > 100 µM | HCT-116 > 100 µM | HCC 2998 > 100 µM | T47D > 100 µM | OVCAR-4 > 100 µM | RPMI-8226 > 100 µM | COLO 205 > 100 µM | A498 > 100 µM | IGROV-1 > 100 µM

C=CCN(c1cc(OC)c(NC(C)=O)cc1[N+](=O)[O-])S(C)(=O)=O
inactive: NCI-H226 > 100 µM | SF-295 > 100 µM | OVCAR-5 > 100 µM | OVCAR-3 > 100 µM | HOP-62 > 100 µM | MDA-MB-435 > 100 µM | SK-MEL-28 > 100 µM | Hs-578T > 100 µM | SN12C > 100 µM | OVCAR-8 > 100 µM | MDA-N > 100 µM | PC-3 > 100 µM | HCT-116 > 100 µM | HCC 2998 > 100 µM | T47D > 100 µM | OVCAR-4 > 100 µM | RPMI-8226 > 100 µM | COLO 205 > 100 µM | A498 > 100 µM | IGROV-1 > 100 µM

CCCCCCCCCCCCCCCCCCOCC(CCP(=O)(CP(=O)(O)O)Oc1ccccc1)OCCCCCCCCCCCCCCCCCC (stereo not given)
inactive: NCI-H226 > 100 µM | SF-295 > 100 µM | OVCAR-5 > 100 µM | OVCAR-3 > 100 µM | HOP-62 > 100 µM | MDA-MB-435 > 100 µM | SK-MEL-28 > 100 µM | Hs-578T > 100 µM | SN12C > 100 µM | OVCAR-8 > 100 µM | MDA-N > 100 µM | PC-3 > 100 µM | HCT-116 > 100 µM | HCC 2998 > 100 µM | T47D > 100 µM | OVCAR-4 > 100 µM | RPMI-8226 > 100 µM | COLO 205 > 100 µM | A498 > 100 µM | IGROV-1 > 100 µM
